pIC50: −log10 of the molar value.
Experiments:
[1] = tested on: p-RSK (Thr359) in colo205 cells; assay: p-RSK (Thr359) Acumen Assay in Colo205; assay type: cell-based; conditions: Homo sapiens, COLO 205, 1 hour compound incubation, read-out: Example 19 IC50
In short: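 Colo205 cells (4000/well, seeded overnight in 10% FBS) were exposed 1 hour at 37° C to compound added from a 3–0.001 μM dilution series in 5% DMSO. Cells were then fixed, permeabilised and immunostained for p-RSK Thr359, with PI counterstain. Acumen cytometry gave the percentage of positive cells, normalised to untreated wells and 3 uM GDC0994 wells, for the IC50 fit.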

MAPK1(ERK2) enzyme = molecular target: T1, MAPK1(ERK2) enzyme (Homo sapiens, UniProt P28482); assay: Z-Lyte Kinase Assay of ERK2; assay type: biochemical; conditions: read-out: Example 18 IC50
T1 construct: purchased Invitrogen PV3313
In short: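 FRET-based Z-LYTE assay using ERK2 kinase with Ser/Thr3 peptide; compound tested at 0.00046–1 μM final in 2% DMSO. Kinase reaction ran 1 h at 25-30° C, followed by 1 h development. The coumarin/fluorescein emission ratio (445/520 nm) gave % phosphorylation, and IC50 was fitted from inhibition relative to uninhibited control.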

T1 sequence (P28482 whole entry): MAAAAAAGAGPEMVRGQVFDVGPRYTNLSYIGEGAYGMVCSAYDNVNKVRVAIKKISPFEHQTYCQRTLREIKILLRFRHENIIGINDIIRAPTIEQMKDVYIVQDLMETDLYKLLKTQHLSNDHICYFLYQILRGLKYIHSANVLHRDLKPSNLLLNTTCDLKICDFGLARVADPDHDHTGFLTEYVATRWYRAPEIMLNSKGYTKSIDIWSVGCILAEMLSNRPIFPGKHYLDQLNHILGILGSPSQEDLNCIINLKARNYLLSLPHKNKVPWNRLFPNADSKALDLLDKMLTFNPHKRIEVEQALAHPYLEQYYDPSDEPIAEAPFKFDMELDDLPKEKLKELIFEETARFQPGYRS

| SMILES | pIC50 [1] | pIC50 (MAPK1(ERK2) enzyme) |
| --- | --- | --- |
| Cn1nccc1Nc1cc(-c2cc3n(c2)C[C@H](F)Cn2c-3nnc2C2(C(F)(F)F)CCC2)c(F)cn1 [Compound 85] | ≥ 7.00 | ≥ 8.30 |
| Cn1nccc1Nc1cc(-c2cc3n(c2)C[C@H](CF)n2c-3nnc2C(F)(F)c2ccccc2)c(Cl)cn1 [Compound 137] | ≥ 7.00 | < 8.00 |
| Cn1nccc1Nc1cc(-c2cc3n(c2)CC2(COC2)Cn2c-3nnc2C2(C(F)(F)F)CCC2)c(Cl)cn1 [Compound 307] | ≥ 7.00 | ≥ 8.30 |
| Cn1nccc1Nc1cc(-c2cc3n(c2)C[C@H](CF)n2c-3nnc2C2(C(C)(F)F)CCC2)c(Cl)cn1 [Compound 116] | < 7.00 | 8.00 to 8.30 |
| Cc1cnc(Nc2ccnn2C)cc1-c1cc2n(c1)[C@H]1CC[C@H](C1)n1c-2nnc1C(F)(F)C(F)F [Compound 67] | ≥ 7.00 | ≥ 8.30 |
| Cc1cnc(Nc2ccnn2C)cc1-c1cc2n(c1)C[C@H](C(F)F)n1c-2nnc1C(F)(F)n1cc(Cl)cn1 [Compound 198] | ≥ 7.00 | ≥ 8.30 |
| Cn1nccc1Nc1cc(-c2cc3n(c2)C[C@H](F)Cn2c-3nnc2C(F)(F)C(F)(F)F)c(Cl)cn1 [Compound 115] | < 7.00 | 8.00 to 8.30 |
| Cc1cnc(Nc2ccnn2C)cc1-c1cc2n(c1)CC1(CCC1)n1c-2nnc1C(F)(F)C(F)F [Compound 242] | < 7.00 | 8.00 to 8.30 |
| Cn1nccc1Nc1cc(-c2cc3n(c2)CC(F)(F)Cn2c-3nnc2C(F)(F)C(F)F)c(Cl)cn1 [Compound 113] | < 7.00 | 8.00 to 8.30 |
| C[C@@H](CO)Nc1ncc(Cl)c(-c2cc3n(c2)CCCn2c-3nnc2C2(C(F)(F)F)CCC2)n1 [Compound 276] | ≥ 7.00 | ≥ 8.30 |
| Cn1nccc1Nc1cc(-c2cc3n(c2)CCCn2c-3nnc2C2(C(C)(F)F)CCC2)c(Cl)cn1 [Compound 49] | ≥ 7.00 | ≥ 8.30 |
| C[C@H]1Cn2cc(-c3cc(Nc4ccnn4C)ncc3Cl)cc2-c2nnc(C(F)(F)c3ccccc3F)n21 [Compound 135] | ≥ 7.00 | 8.00 to 8.30 |
| Cc1cnc(Nc2ccnn2C(F)F)nc1-c1cn2c(n1)-c1nnc(C(F)(F)c3ccccc3Cl)n1[C@@H](C)C2 [Compound 228] | ≥ 7.00 | ≥ 8.30 |
| Cc1cnc(Nc2ccnn2C)nc1-c1cc2n(c1)C[C@H](C)n1c-2nnc1C(F)(F)c1ccccc1Cl [Compound 125] | ≥ 7.00 | 8.00 to 8.30 |
| COC[C@H]1Cn2cc(-c3nc(Nc4ccnn4C)ncc3C)cc2-c2nnc(C(F)(F)c3ccccc3Cl)n21 [Compound 202] | ≥ 7.00 | 8.00 to 8.30 |
| Cc1cnc(Nc2ccnn2C)nc1-c1cc2n(c1)C[C@H](C)n1c-2nnc1C(F)(F)c1cc(F)ccc1F [Compound 134] | ≥ 7.00 | 8.00 to 8.30 |
| COc1cc(Nc2cc(-c3cc4n(c3)CCCn3c-4nnc3C3(C(F)(F)F)CCC3)c(Cl)cn2)n(C)n1 [Compound 269] | < 7.00 | 8.00 to 8.30 |
| Cn1nccc1Nc1nccc(-c2cc3n(c2)C[C@H](CF)n2c-3nnc2C(F)(F)c2ccccc2Cl)n1 [Compound 142] | ≥ 7.00 | 8.00 to 8.30 |
| COC[C@H]1Cn2cc(-c3cc(Nc4ccnn4C)ncc3C)cc2-c2nnc(C(F)(F)c3ccccc3F)n21 [Compound 303] | < 7.00 | 8.00 to 8.30 |
| C[C@H]1Cn2cc(-c3nc(Nc4ccnn4C)ncc3F)cc2-c2nnc(C(F)(F)c3ccccc3Cl)n21 [Compound 143] | ≥ 7.00 | < 8.00 |
| CC(C)Nc1cc(-c2cc3n(c2)CCCn2c-3nnc2C2(C(F)(F)F)CCC2)c(Cl)cn1 [Compound 230] | < 7.00 | 8.00 to 8.30 |
| Cc1cnc(Nc2ccnn2C)cc1-c1cc2n(c1)C[C@H](CF)n1c-2nnc1C(F)(F)c1ccc(F)c(F)c1 [Compound 181] | < 7.00 | 8.00 to 8.30 |
| Cc1cnc(Nc2ccnn2C)cc1-c1cc2n(c1)CC1(CC1)Cn1c-2nnc1C1(C(F)(F)F)CCC1 [Compound 258] | ≥ 7.00 | ≥ 8.30 |
| Cc1cnc(Nc2ccnn2C)nc1-c1cc2n(c1)C[C@H](C)n1c-2nnc1C(F)(F)c1c(F)cccc1F [Compound 130] | < 7.00 | 8.00 to 8.30 |
| CCC(F)(F)c1nnc2n1[C@@H](CF)Cn1cc(-c3cc(Nc4ccnn4C)ncc3C)cc1-2 [Compound 57] | < 7.00 | ≥ 8.30 |
| Cc1cnc(Nc2ccnn2C)cc1-c1cc2n(c1)[C@@H]1CC[C@@H](C1)n1c-2nnc1C(F)(F)C(F)F [Compound 65] | ≥ 7.00 | ≥ 8.30 |
| Cc1cnc(Nc2ccnn2C)cc1-c1cc2n(c1)CC1(COC1)Cn1c-2nnc1C1(C(F)(F)F)CCC1 [Compound 306] | ≥ 7.00 | ≥ 8.30 |
| Cc1c(-c2ccnc(Nc3ccnn3C)n2)cn2c1-c1nnc(C3(C(F)(F)F)CCC3)n1CCC2 [Compound 13] | < 7.00 | ≥ 8.30 |

| SMILES | pIC50 [1] | pIC50 (MAPK1(ERK2) enzyme) |
| --- | --- | --- |
| Cc1cnc(Nc2ccnn2C)cc1-c1cc2n(c1)CC(F)(F)Cn1c-2nnc1C1(C(F)F)CC(F)(F)C1 [Compound 169] | ≥ 7.00 | ≥ 8.30 |
| Cn1nccc1Nc1nccc(-c2cn3c(c2Cl)-c2nnc(Cc4ccccc4F)n2CCC3)n1 [Compound 245] | ≥ 7.00 | ≥ 8.30 |
| Cn1nccc1Nc1cc(-c2cc3n(c2)C[C@H](CF)n2c-3nnc2C(F)(F)C(F)(F)F)c(Cl)cn1 [Compound 114] | < 7.00 | ≥ 8.30 |
| C[C@H]1Cn2cc(-c3nc(Nc4ccnn4C)ncc3F)cc2-c2nnc(C(F)(F)c3ccccc3F)n21 [Compound 97] | ≥ 7.00 | 8.00 to 8.30 |
| Cn1nccc1Nc1cc(-c2cc3n(c2)C[C@H](CF)n2c-3nnc2C(F)(F)c2nccs2)c(Cl)cn1 [Compound 161] | ≥ 7.00 | ≥ 8.30 |
| Cn1nccc1Nc1cc(-c2cc3n(c2)CC(C)(C)n2c(CCC(F)(F)F)nnc2-3)c(Cl)cn1 [Compound 247] | ≥ 7.00 | ≥ 8.30 |
| Cc1cnc(Nc2ccnn2CCO)nc1-c1cc2n(c1)C[C@H](C)n1c-2nnc1C(F)(F)c1ccccc1F [Compound 293] | ≥ 7.00 | 8.00 to 8.30 |
| Cc1cnc(Nc2ccnn2C)cc1-c1cc2n(c1)C[C@H](C)n1c-2nnc1C(F)(F)c1ccccc1Cl [Compound 118] | ≥ 7.00 | < 8.00 |
| Cc1cnc(Nc2ccnn2C)nc1-c1cc2n(c1)CCC(C)(C)n1c-2nnc1C1(C(F)(F)F)CC1 [Compound 251] | ≥ 7.00 | ≥ 8.30 |
| Cn1nccc1Nc1cc(-c2cc3n(c2)C[C@H](CF)n2c-3nnc2C(F)(F)c2ccon2)c(Cl)cn1 [Compound 112] | ≥ 7.00 | 8.00 to 8.30 |
| COCCn1nccc1Nc1ncc(C)c(-c2cc3n(c2)C[C@H](C)n2c-3nnc2C(F)(F)c2ccccc2F)n1 [Compound 296] | ≥ 7.00 | 8.00 to 8.30 |
| Cc1cnc(Nc2ccnn2C)cc1-c1cc2n(c1)CCn1c-2nnc1C(F)(F)c1ccccc1Cl [Compound 90] | ≥ 7.00 | 8.00 to 8.30 |
| C[C@H]1CCn2cc(-c3cc(Nc4ccnn4C)ncc3Cl)cc2-c2nnc(C3(CC(F)(F)F)CCC3)n21 [Compound 160] | ≥ 7.00 | ≥ 8.30 |
| Cn1nccc1Nc1nccc(-c2cc3c4nnc(Nc5ccccc5F)n4ccn3c2)n1 [Compound 41, N-(2-fluorophenyl)-9-(2-((1-methyl-1H-pyrazol-5-yl)amino)pyrimidin-4-yl)pyrrolo[1,2-a][1,2,4]triazolo[3,4-c]pyrazin-3-amine] | < 7.00 | ≥ 8.30 |
| Cn1nccc1Nc1cc(-c2cc3n(c2)C[C@H](CF)n2c-3nnc2C(F)(F)c2cccc(F)c2)c(Cl)cn1 [Compound 191] | < 7.00 | 8.00 to 8.30 |
| Cc1c(-c2ccnc(Nc3ccnn3C)n2)cn2c1-c1nnc(Nc3ccccc3F)n1CCC2 [Compound 42] | < 7.00 | ≥ 8.30 |
| Cn1nccc1Nc1cc(-c2cc3n(c2)CCCn2c-3nnc2C2(C(F)F)CC(F)(F)C2)c(Cl)cn1 [Compound 120] | ≥ 7.00 | ≥ 8.30 |
| Cn1nccc1Nc1cc(-c2cc3n(c2)CC2(CC2)Cn2c-3nnc2C2(C(F)F)CCC2)c(Cl)cn1 [Compound 51] | ≥ 7.00 | ≥ 8.30 |
| Cc1cnc(Nc2ccnn2C)cc1-c1cc2n(c1)C[C@H](CF)n1c-2nnc1C(F)(F)n1ccc(F)n1 [Compound 104] | ≥ 7.00 | ≥ 8.30 |
| CCc1cnc(Nc2ccnn2C)cc1-c1cc2n(c1)C[C@H](OC)Cn1c-2nnc1C1(C(F)(F)F)CCC1 [Compound 147] | < 7.00 | ≥ 8.30 |
| Cn1nccc1Nc1cc(-c2cc3n(c2)CCCn2c-3nnc2C2(C#N)CCC2)c(Cl)cn1 [Compound 4] | < 7.00 | ≥ 8.30 |
| Cn1nccc1Nc1cc(-c2cc3n(c2)CCCn2c(Nc4ccccc4F)nnc2-3)c(Cl)cn1 [Compound 43] | ≥ 7.00 | 8.00 to 8.30 |
| Cc1cnc(Nc2ccnn2C)nc1-c1cc2n(c1)C[C@H](CF)n1c-2nnc1C(F)(F)c1ccccc1F [Compound 131] | ≥ 7.00 | ≥ 8.30 |
| Cn1nccc1Nc1cc(-c2cc3n(c2)CCn2c(COc4ccccc4F)nnc2-3)c(Cl)cn1 [Compound 23] | ≥ 7.00 | 8.00 to 8.30 |
| Cn1nccc1Nc1cc(-c2cc3n(c2)CCCn2c-3nnc2C2(C(F)F)CCCC2)c(Cl)cn1 [Compound 81] | ≥ 7.00 | ≥ 8.30 |
| Cn1nccc1Nc1ncc(F)c(-c2cc3n(c2)CCCn2c-3nnc2C2(C(F)(F)F)CCC2)n1 [Compound 285] | < 7.00 | ≥ 8.30 |
| Cc1cnc(Nc2ccnn2C)cc1-c1cc2n(c1)C[C@H](CF)n1c-2nnc1C(F)(F)c1cc(F)ccc1F [Compound 183] | ≥ 7.00 | ≥ 8.30 |
